As usually defined, the EC50 is the concentration needed to bring the measured effect to its halfway point. Higher therefore signals lower potency in that assay.

Each structure is given as a SMILES string.

Experiment [1] addresses T1, TGR5 (NCI-H716 cell line) (Homo sapiens, UniProt Q8TDU6).
T1 sequence (Q8TDU6 1-330): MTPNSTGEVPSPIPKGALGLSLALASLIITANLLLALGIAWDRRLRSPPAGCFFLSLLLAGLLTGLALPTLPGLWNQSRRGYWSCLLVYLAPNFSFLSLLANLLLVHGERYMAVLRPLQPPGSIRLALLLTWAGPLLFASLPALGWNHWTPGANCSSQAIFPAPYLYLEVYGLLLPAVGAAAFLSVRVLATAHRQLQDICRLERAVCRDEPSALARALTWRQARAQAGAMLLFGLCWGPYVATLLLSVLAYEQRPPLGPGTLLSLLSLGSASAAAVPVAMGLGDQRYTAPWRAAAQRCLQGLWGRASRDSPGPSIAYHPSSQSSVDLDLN
Put plainly: NCI-H716 cAMP Agonist EC50 Determination.

Another experiment addresses T2, TGR5 (STC1 cell line) (Mus musculus, UniProt Q80SS6).
T2 sequence (Q80SS6 1-329): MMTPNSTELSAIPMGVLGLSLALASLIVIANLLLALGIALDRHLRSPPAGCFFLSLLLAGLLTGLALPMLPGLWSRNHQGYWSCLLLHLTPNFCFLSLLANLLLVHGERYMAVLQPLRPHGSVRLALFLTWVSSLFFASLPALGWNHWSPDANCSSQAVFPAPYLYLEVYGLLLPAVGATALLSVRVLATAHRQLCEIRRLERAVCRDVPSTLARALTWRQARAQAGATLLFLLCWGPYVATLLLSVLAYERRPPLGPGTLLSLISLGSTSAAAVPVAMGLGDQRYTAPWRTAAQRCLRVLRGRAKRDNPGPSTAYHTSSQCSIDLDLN
Put plainly: STC1 cAMP Agonist EC50 Determination.

With `COc1cc(C2(C)CCCc3nc(SCc4c(F)cc(-c5nn[nH]n5)cc4F)n(-c4ccc(F)cc4)c32)ccc1Cl` (stereo not drawn) [Example 90, 7-(4-chloro-3-methoxyphenyl)-2-(2,6-difluoro-4-(2H-tetrazol-5-yl)benzylthio)-1-(4-fluorophenyl)-7-methyl-4,5,6,7-tetrahydro-1H-benzo[d]imidazole trifluoroacetic acid], the 50% effective concentration (EC50) in experiment [1] was above 50 µM; on TGR5 (STC1 cell line), 3900 nM.
Consider `CNC(=O)c1cc(F)c(CSc2nc3c(n2-c2ccc(F)cc2)C(C)(c2ccc(Cl)c(OC)c2)CCC3)c(F)c1` (stereo not drawn) [Example 91, 4-((7-(4-chloro-3-methoxyphenyl)-1-(4-fluorophenyl)-7-methyl-4,5,6,7-tetrahydro-1H-benzo[d]imidazol-2-ylthio)methyl)-3,5-difluoro-N-methylbenzamide trifluoroacetic acid], for which the EC50 in experiment [1] was above 50 µM; at TGR5 (STC1 cell line), 230 nM.
`COc1cc(C2(C)CCCc3nc(SCc4c(F)cc(C(=O)N(C)C)cc4F)n(-c4ccc(F)cc4)c32)ccc1Cl` (stereo not drawn) [Example 92, 4-([[7-(4-chloro-3-methoxyphenyl)-1-(4-fluorophenyl)-7-methyl-4,5,6,7-tetrahydro-1H-1,3-benzodiazol-2-yl]sulfanyl]methyl)-3,5-difluoro-N,N-dimethylbenzamide]: the EC50 in experiment [1] worked out at 18.1 µM; on TGR5 (STC1 cell line), 120 nM.
With `COc1cc(C2(C)CCCc3nc(SCc4c(F)cc(C(=O)N5CCOCC5)cc4F)n(-c4ccc(F)cc4)c32)ccc1Cl` (stereo not drawn) [Example 93, 7-(4-chloro-3-methoxyphenyl)-2-[([2,6-difluoro-4-[(morpholin-4-yl)carbonyl]phenyl]methyl)sulfanyl]-1-(4-fluorophenyl)-7-methyl-4,5,6,7-tetrahydro-1H-1,3-benzodiazole], the EC50 in experiment [1] was above 50 µM; on TGR5 (STC1 cell line) it was 250 nM.
Consider `COc1cc(C2(C)CCCc3nc(SCc4c(F)cc(C(=O)NCCO)cc4F)n(-c4ccc(F)cc4)c32)ccc1Cl` (stereo not drawn) [Example 94, 4-((7-(4-chloro-3-methoxyphenyl)-1-(4-fluorophenyl)-7-methyl-4,5,6,7-tetrahydro-1H-benzo[d]imidazol-2-ylthio)methyl)-3,5-difluoro-N-(2-hydroxyethyl)benzamide trifluoroacetic acid], for which the EC50 in experiment [1] is above 50 µM; on TGR5 (STC1 cell line) it was 410 nM.
On to `COc1cc(C2(C)CCCc3nc(SCc4c(F)ccc(O)c4F)n(-c4ccc(F)cc4)c32)ccc1Cl` (stereo not drawn) [Example 95, 3-((7-(4-chloro-3-methoxyphenyl)-1-(4-fluorophenyl)-7-methyl-4,5,6,7-tetrahydro-1H-benzo[d]imidazol-2-ylthio)methyl)-2,4-difluorophenol trifluoroacetic acid], for which the results for the EC50 (in experiment [1]; on TGR5 (STC1 cell line)) were 12.5 µM and 370 nM, respectively.
Take `COc1cc(C2(C)CCCc3nc(SCc4c(F)ccc(OCCN(C)C)c4F)n(-c4ccc(F)cc4)c32)ccc1Cl` (stereo not drawn) [Example 96, 2-(3-((7-(4-chloro-3-methoxyphenyl)-1-(4-fluorophenyl)-7-methyl-4,5,6,7-tetrahydro-1H-benzo[d]imidazol-2-ylthio)methyl)-2,4-difluorophenoxy)-N,N-dimethylethanamine trifluoroacetic acid]: the EC50 in experiment [1] is above 50 µM; on TGR5 (STC1 cell line), 13400 nM.
Regarding `COc1cc(C2(C)CCCc3nc(SCc4c(F)cncc4F)n(-c4ccc(F)cc4)c32)ccc1Cl` (stereo not drawn) [Example 98, 2-((3,5-difluoropyridin-4-yl)methylthio)-7-(4-chloro-3-methoxyphenyl)-1-(4-fluorophenyl)-4,5,6,7-tetrahydro-7-methyl-1H-benzo[d]imidazole trifluoroacetic acid], the figures for the EC50 (in experiment [1]; at TGR5 (STC1 cell line)) were 24.3 µM and 160 nM, respectively.
As to `COc1ccc(C2(C)CCCc3nc(SCc4ccccc4)n(-c4ccc(F)cc4)c32)cc1OC` (stereo not drawn) [Example 99, 2-(benzylthio)-7-(3,4-dimethoxyphenyl)-1-(4-fluorophenyl)-7-methyl-4,5,6,7-tetrahydro-1H-benzo[d]imidazole], the values for the EC50 (in experiment [1]; on TGR5 (STC1 cell line)) were 33.1 µM and 2390 nM, respectively.
For `COc1ccc(C2(C)CCCc3nc(SCc4c(F)cc(C#N)cc4F)n(-c4ccc(F)cc4)c32)cc1OC` (stereo not drawn) [Example 102, 4-(((7-(3,4-dimethoxyphenyl)-1-(4-fluorophenyl)-7-methyl-4,5,6,7-tetrahydro-1H-benzo[d]imidazol-2-yl)thio)methyl)-3,5-difluorobenzonitrile], the EC50 in experiment [1] stood at 1.37 µM; on TGR5 (STC1 cell line), 30 nM.
Regarding `COc1ccc(C2(C)CCCc3nc(SCc4c(F)cc(C(N)=O)cc4F)n(-c4ccc(F)cc4)c32)cc1OC` (stereo not drawn) [Example 104, 4-(((7-(3,4-dimethoxyphenyl)-1-(4-fluorophenyl)-7-methyl-4,5,6,7-tetrahydro-1H-benzo[d]imidazol-2-yl)thio)methyl)-3,5-difluorobenzamide], the EC50 in experiment [1] was found to be 0.9 µM; on TGR5 (STC1 cell line), 170 nM.
For the compound `COc1ccc(C2(C)CCCc3nc(SCc4c(F)cc(OCCCl)cc4F)n(-c4ccc(F)cc4)c32)cc1OC` (stereo not drawn) [Example 107, 2-((4-(2-chloroethoxy)-2,6-difluorobenzyl)thio)-7-(3,4-dimethoxyphenyl)-1-(4-fluorophenyl)-7-methyl-4,5,6,7-tetrahydro-1H-benzo[d]imidazole], the EC50 in experiment [1] came out at 1.4 µM; on TGR5 (STC1 cell line), 320 nM.
With `COc1ccc(C2(C)CCCc3nc(SCc4c(F)cc(OCCN(C)C)cc4F)n(-c4ccc(F)cc4)c32)cc1OC` (stereo not drawn) [Example 108, 2-(4-(((7-(3,4-dimethoxyphenyl)-1-(4-fluorophenyl)-7-methyl-4,5,6,7-tetrahydro-1H-benzo[d]imidazol-2-yl)thio)methyl)-3,5-difluorophenoxy)-N,N-dimethylethanamine], the figures for the EC50 (in experiment [1]; on TGR5 (STC1 cell line)) were 0.68 µM and 310 nM, respectively.
For the compound `COc1ccc(C2(C)CCCc3nc(SCc4c(F)cc(Br)cc4F)n(-c4ccc(F)cc4)c32)cc1OC` (stereo not drawn) [Example 109, 2-((4-bromo-2,6-difluorobenzyl)thio)-7-(3,4-dimethoxyphenyl)-1-(4-fluorophenyl)-7-methyl-4,5,6,7-tetrahydro-1H-benzo[d]imidazole], the EC50 in experiment [1] turned out to be 3.6 µM; on TGR5 (STC1 cell line), 200 nM.
On the same counts, the results for `CCO/C=C/c1cc(F)c(CSc2nc3c(n2-c2ccc(F)cc2)C(C)(c2ccc(OC)c(OC)c2)CCC3)c(F)c1` (stereo not drawn) [Example 110, (E)-7-(3,4-dimethoxyphenyl)-2-((4-(2-ethoxyvinyl)-2,6-difluorobenzyl)thio)-1-(4-fluorophenyl)-7-methyl-4,5,6,7-tetrahydro-1H-benzo[d]imidazole] are 1.18 µM and 450 nM.
Regarding `COc1ccc(C2(C)CCCc3nc(SCc4c(F)cc(CCN(C)C)cc4F)n(-c4ccc(F)cc4)c32)cc1OC` (stereo not drawn) [Example 111, 2-(4-(((7-(3,4-dimethoxyphenyl)-1-(4-fluorophenyl)-7-methyl-4,5,6,7-tetrahydro-1H-benzo[d]imidazol-2-yl)thio)methyl)-3,5-difluorophenyl)-N,N-dimethylethanamine], the EC50 in experiment [1] was found to be 1.41 µM; on TGR5 (STC1 cell line), 200 nM.
Turning to `COc1ccc(C2(C)CCCc3nc(SCc4c(F)cc(CCN5CCOCC5)cc4F)n(-c4ccc(F)cc4)c32)cc1OC` (stereo not drawn) [Example 112, 4-(4-(((7-(3,4-dimethoxyphenyl)-1-(4-fluorophenyl)-7-methyl-4,5,6,7-tetrahydro-1H-benzo[d]imidazol-2-yl)thio)methyl)-3,5-difluorophenethyl)morpholine], the half-maximal effective concentration (EC50) in experiment [1] amounted to 0.3 µM; on TGR5 (STC1 cell line), 130 nM.
With `COc1ccc(C2(C)CCCc3nc(SCc4c(Cl)cccc4Cl)n(-c4ccc(F)cc4)c32)cc1OC` (stereo not drawn) [Example 114, 2-((2,6-dichlorobenzyl)thio)-7-(3,4-dimethoxyphenyl)-1-(4-fluorophenyl)-7-methyl-4,5,6,7-tetrahydro-1H-benzo[d]imidazole], the EC50 amounted to 25.7 µM in experiment [1] and 1640 nM at TGR5 (STC1 cell line).
Turning to `COc1ccc(C2(C)CCCc3nc(SCc4c(F)cccc4[N+](=O)[O-])n(-c4ccc(F)cc4)c32)cc1OC` (stereo not drawn) [Example 115, 7-(3,4-dimethoxyphenyl)-2-((2-fluoro-6-nitrobenzyl)thio)-1-(4-fluorophenyl)-7-methyl-4,5,6,7-tetrahydro-1H-benzo[d]imidazole], the values for the EC50 (in experiment [1]; on TGR5 (STC1 cell line)) were 2.6 µM and 220 nM, respectively.
In the case of `COc1ccc(C2(C)CCCc3nc(SCc4nccs4)n(-c4ccc(F)cc4)c32)cc1OC` (stereo not drawn) [Example 117, 2-(((7-(3,4-dimethoxyphenyl)-1-(4-fluorophenyl)-7-methyl-4,5,6,7-tetrahydro-1H-benzo[d]imidazol-2-yl)thio)methyl)thiazole], the EC50 in experiment [1] was 2.65 µM; on TGR5 (STC1 cell line), 410 nM.
For `COc1cc(C2(C)CCCc3nc(SCc4c(F)cc(C(=O)O)cc4F)n(-c4ccc(F)cc4)c32)ccc1F` (stereo not drawn) [Example 120, 3,5-difluoro-4-(((7-(4-fluoro-3-methoxyphenyl)-1-(4-fluorophenyl)-7-methyl-4,5,6,7-tetrahydro-1H-benzo[d]imidazol-2-yl)thio)methyl)benzoic acid], the results for the EC50 (in experiment [1]; at TGR5 (STC1 cell line)) were above 50 µM and 1180 nM, respectively.

(Values after patent US10077241B2 (Janssen Pharmaceutica NV, priority 2014, dated 2018).)
